Measured values as given in article PMC3330111, “Computational Design of a PDZ Domain Peptide Inhibitor that Rescues CFTR Activity” (PLoS Computational Biology, 2012).
“Also recorded” adds a separate entry of the source. Values belong to the compound of their own block, whether it stands above or below them. Ends that are not written are not given here.

Legend:
CAL PDZ domain [1] = target: T1, CAL PDZ domain (Homo sapiens, UniProt Q9HD26); experiment: fluorescence polarization (FP) competition binding; settings: for Ki: FP competition, compared with best previously known hexamer (iCAL35), read-out: Experimental Ki, mark †
Excerpt: The inhibitor dissociation constants of top- and poorly-ranked peptide sequences from the [drawing 176] CAL-CFTR design were experimentally determined. As a control, the best known peptide hexamer was also retested. The corresponding N-terminally acetylated peptides were purchased from NEO BioScience (Cambridge, MA) and the [drawing 177] values for the peptides were detected using fluorescence polarization (FP), using the method previously described in [59]. […] Each peptide inhibitor was serially diluted and the protein-peptide mixture was added to each dilution. Finally, the amount of competitive inhibition was tracked using residual fluorescence polarization at temperatures between [drawing 178] . Each [drawing 179] value is reported as an average of three FP experiments conducted on separate days along with the corresponding standard deviation.

ΔF508-CFTR chloride flux [2] = experiment: Ussing chamber chloride flux in CFBE-ΔF cells; assay type: cell-based, human; settings: polarized CFBE-ΔF monolayers, 3.5 hour incubation; for improvement in chloride secretion with respect to control peptide kCAL31: peptide delivered with BioPORTER, change in short circuit current on CFTR-specific inhibitor after amiloride, forskolin, genistein
Method: Ussing chamber experiments were performed as described previously. Polarized monolayers of patient-derived bronchial epithelial cells, CFBE- [drawing 180] F cells (a generous gift of Dr. J.P. Clancy, [63]), were maintained in MEM with 2 mM l-glutamine, 10% fetal bovine serum, 50 units/mL penicillin, [drawing 181] streptomycin, [drawing 182] puromycin, [drawing 183] plasmocin, and [drawing 184] amphotericin B. Cells were grown at [drawing 185] in 5% [drawing 186] . Twenty four hours before treatment the cells were moved to MEM with only penicillin and streptomycin. Peptides were dissolved in DMSO and diluted to [drawing 187] in PBS. Peptide solutions were applied to cells following incubation with BioPORTER delivery reagent (Sigma). […] Following a 3.5 hour incubation with peptide, short circuit currents ( [drawing 188] ) were monitored in Ussing chambers. Following treatment with amiloride, forskolin, and genistein, ΔF508-CFTR chloride flux was measured as the change in [drawing 189] when the CFTR-specific inhibitor, [drawing 190] [64], [65], was applied to the cell monolayer. All measurements were performed at [drawing 191] .

CAL PDZ domain [3] = target: T1, CAL PDZ domain; experiment: ProLib profile library SPOT array; assay type: binding; settings: 10 µg/ml His-tagged CAL PDZ domain, anti-His/anti-mouse-HRP detection
Method: After the [drawing 124] predictions were calculated, the binding of C-termini peptides to CAL was also experimentally assessed using an additional SPOT array. The profile library array (ProLib; Fig. S3 in Text S1) was designed based on the following motif: bbbb [drawing 125] (B = permutation of a defined set of amino acids, b = mixture of 17 amino acids, without C, M and W). The defined set of amino acids were selected based on the HumLib results combined with substitutional analyses with [drawing 126] = A/C/D/E/F/I/K/L/M/N/Q/R/S/T/V/W/Y, [drawing 127] = S/T, [drawing 128] = A/C/D/E/F/I/K/L/M/N/Q/R/S/T/V/W/Y, [drawing 129] = I/L/V (Total number of peptides = 1734+22 internal control sequences). Incubation condition: [drawing 130] His-tagged CAL PDZ domain detected by anti-His (Sigma; 1∶2600)/anti-mouse-HRP (Calbiochem; 1∶2000) antibody sandwich.
Fig. S3. CAL binding data for ProLib spot array. We selected the amino acid prefer-ences of the last 4 C-terminal ligand residues based on their frequency deduced from the 6223-Humlib and the substitutional analysis. […] Incubation condition: 10 µg/ml His-tagged CAL PDZ domain detected by anti-His (Sigma; 1:2600)/anti-mouse-HRP (Calbiochem; 1:2000) antibody sand- […]

ΔF508-CFTR chloride flux [4] = settings: CFBE-ΔF cells, identical experimental conditions; ref [1]; cited from earlier work
Excerpt: While this effect is clearly statistically significant ( ), we also wished to assess its magnitude relative to the effect of known rescue compounds. The performance of kCAL01 was benchmarked using polarized human airway epithelial cells derived from a CF patient (stably expressing ΔF508-CFTR; CFBE- F cells). In these cells, CFTR rescue is more challenging than in heterologous cells, but the levels of rescue observed are more likely to reflect the physiological situation. Since CFTR modulation is extremely sensitive to experimental con ...

Compound: Ac-WQVTRV [kCAL01, Ac-WQVTRV]
binding efficiency (ratio of inhibitor potency, ΔG, to molecular mass) relative to F*-iCAL36 (CAL PDZ domain [1]): approximately twice
improvement in CAL binding affinity compared to iCAL35 (CAL PDZ domain [1]; FP): six-fold
improvement in CAL binding affinity over HumLib01 (CAL PDZ domain [1]; FP): six-fold
Ki (CAL PDZ domain [1]): < 14 µM
fold higher affinity than any comparable natural ligand (CAL PDZ domain [1]; versus best known natural ligand ANGLMQTSKL): 9 fold
fold tighter binding to CAL than the CFTR C-terminus (CAL PDZ domain [1]; versus wild-type CFTR sequence TEEEVQDTRL): 170 fold
improvement in chloride secretion with respect to reference peptide iCAL35 (ΔF508-CFTR chloride flux [2]; BioPORTER delivery): 8%
improvement in chloride secretion with respect to control peptide kCAL31 (ΔF508-CFTR chloride flux [2]): 12%

Compound: WQTSII [iCAL35, reference compound]
improvement in chloride secretion with respect to control peptide kCAL31 (ΔF508-CFTR chloride flux [2]): 4%

Compound: Ac-WQDSGI [kCAL31]
Experimental Ki (inhibitor dissociation constant) (CAL PDZ domain [1]; FP competition with labeled peptide, 25 mM Tris-HCl pH 8.5, 150 mM NaCl, 0.1 mg/mL bovine IgG, 0.5 mM Thesit, average of three FP experiments on separate days): no binding was detected; also recorded: no CAL binding detected

Compound: WQSTRL [HumLib01]
CAL binding in ProLib array (CAL PDZ domain [3]): strongest binder
improvement in CAL binding affinity compared to iCAL35 (CAL PDZ domain [1]; FP): only a marginal improvement

Compound: COc1ccc(Cl)cc1Nc1nc(-c2sc(NC(=O)c3ccccc3)nc2C)cs1 [corr-4a]
increase in ΔF508-CFTR levels (ΔF508-CFTR chloride flux [4]): 15%

Now from value to compound:

Ki (CAL PDZ domain [1]): < 14 µM
Compound: Ac-WQKTRI [kCAL05, Ac-WQKTRI]

Ki (CAL PDZ domain [1]): < 14 µM
Compound: Ac-WQRTRL [kCAL04, Ac-WQRTRL]

Ki (CAL PDZ domain [1]): < 14 µM
Compound: Ac-WQFTRL [kCAL02, Ac-WQFTRL]

Ki (CAL PDZ domain [1]): < 14 µM
Compound: Ac-WQKTRL [kCAL03, Ac-WQKTRL]
